Measured values reported in the OligoGym collection.
HELM strings list units from the 5' end as sugar, base in round brackets, then linkage (d deoxyribose, r ribose, m 2'-O-methyl, p phosphodiester). Strings are as the collection lists them, not checked against the first reports. ss, as = sense and antisense strand; [lna] = locked nucleic acid (LNA); [hna] = hexitol nucleic acid; [s4r] = 4'-thioribose; [fl2r] = 2'-fluoro

Settings: siRNA
Also: test system not given here.

Substance	target mRNA knockdown
RNA1{[hna](G)p.[hna](A)p.[hna](C)p.r(G)p.r(U)p.r(A)p.r(A)p.r(A)p.r(C)p.r(G)p.r(G)p.r(C)p.r(C)p.r(A)p.r(C)p.r(A)p.r(A)p.[hna](G)p.[hna](U)p.[hna](U)p.d(T)}|RNA2{r(A)p.r(C)p.r(U)p.r(U)p.r(G)p.r(U)p.r(G)p.r(G)p.r(C)p.r(C)p.r(G)p.r(U)p.r(U)p.r(U)p.r(A)p.r(C)p.r(G)p.[hna](U)p.[hna](C)p.[hna](G)p.d(T)}$$$RNA1{StrandType:ss}|RNA2{StrandType:as}$	84.6%
RNA1{r(G)p.r(A)p.r(C)p.r(G)p.[hna](U)p.r(A)p.r(A)p.[hna](A)p.r(C)p.r(G)p.[hna](G)p.r(C)p.r(C)p.[hna](A)p.r(C)p.r(A)p.r(A)p.r(G)p.r(U)p.[hna](U)p.d(T)}|RNA2{r(A)p.m(C)p.r(U)p.r(U)p.r(G)p.r(U)p.r(G)p.r(G)p.r(C)p.r(C)p.r(G)p.r(U)p.r(U)p.r(U)p.r(A)p.r(C)p.r(G)p.r(U)p.r(C)p.r(G)p.r(C)}$$$RNA1{StrandType:ss}|RNA2{StrandType:as}$	38%
RNA1{r(C)p.r(G)p.r(U)p.r(A)p.r(C)p.r(G)p.r(C)p.r(G)p.r(G)p.r(A)p.r(A)p.r(U)p.r(A)p.r(C)p.r(U)p.r(U)p.r(C)p.r(G)p.r(A)p.r(T)p.r(T)}|RNA2{[s4r](U)p.[s4r](C)p.[s4r](G)p.[s4r](A)p.r(A)p.r(G)p.r(U)p.r(A)p.r(U)p.r(U)p.r(C)p.r(C)p.r(G)p.r(C)p.r(G)p.[s4r](U)p.[s4r](A)p.[s4r](C)p.[s4r](G)p.r(T)p.r(T)}$$$RNA1{StrandType:ss}|RNA2{StrandType:as}$	20%
RNA1{m(G)p.r(U)p.m(A)p.r(U)p.m(C)p.r(C)p.m(G)p.r(A)p.m(A)p.r(G)p.m(A)p.r(C)p.m(G)p.r(A)p.m(A)p.r(G)p.m(C)p.r(U)p.m(A)p.r(T)p.r(T)}|RNA2{r(U)p.m(A)p.r(G)p.r(C)p.r(U)p.r(U)p.r(C)p.r(G)p.r(U)p.r(C)p.r(U)p.r(U)p.r(C)p.r(G)p.r(G)p.m(A)p.r(U)p.m(A)p.r(C)p.r(T)p.r(T)}$$$RNA1{StrandType:ss}|RNA2{StrandType:as}$	30%
RNA1{r(A)p.r(G)p.r(C)p.r(C)p.r(C)p.r(A)p.r(G)p.r(A)p.[fl2r](U)p.r(A)p.r(G)p.r(C)p.r(U)p.r(C)p.r(U)p.r(U)p.r(C)p.r(A)p.r(G)p.r(T)p.r(T)}|RNA2{r(C)p.r(U)p.r(G)p.r(A)p.r(A)p.r(G)p.r(A)p.r(G)p.r(C)p.[fl2r](U)p.r(A)p.r(U)p.r(C)p.r(U)p.r(G)p.r(G)p.r(G)p.r(C)p.r(U)p.r(T)p.r(T)}$$$RNA1{StrandType:ss}|RNA2{StrandType:as}$	69%
RNA1{[lna](G)p.[lna](C)p.[lna](T)p.r(G)p.r(A)p.r(C)p.[lna](C)p.r(C)p.r(U)p.[lna](G)p.r(A)p.r(A)p.r(G)p.[lna](T)p.[lna](T)p.r(C)p.r(A)p.r(U)p.r(C)p.[lna](T)p.[lna](T)}|RNA2{r(G)p.r(A)p.r(U)p.r(G)p.r(A)p.r(A)p.r(C)p.r(U)p.r(U)p.r(C)p.r(A)p.r(G)p.r(G)p.r(G)p.r(U)p.r(C)p.r(A)p.r(G)p.r(C)p.[lna](T)p.[lna](T)}$$$RNA1{StrandType:ss}|RNA2{StrandType:as}$	0%
RNA1{[s4r](C)p.[s4r](G)p.[s4r](U)p.[s4r](A)p.[s4r](C)p.[s4r](G)p.r(C)p.r(G)p.r(G)p.r(A)p.r(A)p.r(U)p.r(A)p.[s4r](C)p.[s4r](U)p.[s4r](U)p.[s4r](C)p.[s4r](G)p.[s4r](A)p.r(T)p.r(T)}|RNA2{r(U)p.r(C)p.r(G)p.r(A)p.r(A)p.r(G)p.r(U)p.r(A)p.r(U)p.r(U)p.r(C)p.r(C)p.r(G)p.r(C)p.r(G)p.r(U)p.r(A)p.r(C)p.r(G)p.r(T)p.r(T)}$$$RNA1{StrandType:ss}|RNA2{StrandType:as}$	91.5%
RNA1{r(G)p.r(G)p.m(U)p.m(A)p.r(G)p.r(A)p.r(A)p.m(U)p.r(A)p.r(G)p.r(G)p.r(U)p.r(U)p.r(U)p.r(U)p.r(C)p.r(C)p.r(C)p.r(C)p.r(T)p.r(T)}|RNA2{r(G)p.r(G)p.r(G)p.r(G)p.r(A)p.r(A)p.r(A)p.r(A)p.r(C)p.r(C)p.m(U)p.r(A)p.r(U)p.r(U)p.r(C)p.m(U)p.r(A)p.r(C)p.r(C)p.r(T)p.r(T)}$$$RNA1{StrandType:ss}|RNA2{StrandType:as}$	45%
RNA1{r(G)p.r(A)p.r(C)p.r(G)p.[hna](U)p.r(A)p.r(A)p.[hna](A)p.r(C)p.r(G)p.[hna](G)p.r(C)p.r(C)p.[hna](A)p.r(C)p.r(A)p.r(A)p.r(G)p.[hna](U)p.r(U)p.d(T)}|RNA2{r(A)p.r(C)p.[lna](T)p.r(U)p.r(G)p.[lna](T)p.r(G)p.r(G)p.r(C)p.r(C)p.r(G)p.r(U)p.r(U)p.[lna](T)p.r(A)p.r(C)p.r(G)p.[lna](T)p.r(C)p.[lna](G)p.[lna](C)}$$$RNA1{StrandType:ss}|RNA2{StrandType:as}$	7.9%
